From patent US20170114070A1, “INHIBITORS OF THE WNT SIGNALLING PATHWAYS” (Bayer Pharma Aktiengesellschaft, priority 2014, published 2017)
pIC50: −log10 of the molar value. Counter-ions that a name gives are not always drawn.

Legend:
[1] = test system: HCT116 FOPFlash (FOP control vector, non-functional TCF elements); test: Cellular control reporter assay, HCT116 FOP control vector; format: cell-based; conditions: Homo sapiens, HCT-116; HCT116 stably transfected with FOP control vector; 36 hours incubation; luciferase expression; dilution series from 50 μM
Procedure: (§1) In a parallel approach, HCT116 cells were cotransfected with the FOP control vector and pcDNA3. The FOP vector is identical to the TOP construct, but it contains instead of functional TCF elements a randomized, non-functional sequence. For this transfection a stable transfected cell line was generated as well.
(§2) In preparation of the assay, the two cell lines were plated 24 hours before at 10000 cells per well of a 384 micro titre plate (MTP) in 30 μL growth medium. Selective inhibitory activity for small molecules on the mutated Wnt pathway was determined after parallel incubation of both (TOP and FOP) HCT116 reporter cell lines with a compound dilution series from 50 μM to 15 nM in steps of 3.16-fold dilutions in CAFTY buffer (130 mM NaCl, 5 mM KCl, 20 mM HEPES, 1 mM MgCl2, 5 mM NaHCO3, pH 7.4) containing 2 mM Ca^2+ and 0.01% BSA. The compounds were thereby serially prediluted in 100% DMSO and thereafter in addition 50 fold into the CAFTY compound dilution buffer (described above). From this dilution 10 μL were added to the cells in 30 μL growth medium and incubated for 36 hours at 37° C. and 5% CO2. Thereafter luciferase assay buffer (1:1 mixture of luciferase substrate buffer (20 mM Tricine, 2.67 mM MgSO4, 0.1 mM EDTA, 4 mM DTT, 270 μM Coenzyme A, 470 μM Luciferin, 530 μM ATP, ph adjusted to pH 7.8 with a sufficient volume of 5M NaOH) and Triton buffer (30 mL Triton X-100, 115 mL glycerol, 308 mg Dithiothreitol, 4.45 g Na2HPO4.2H2O, 3.03 g TRIS HCl, ad 1 l H20, pH 7.8) was added as equal volume to the compound solution on the cells to determine luciferase expression as a measure of Wnt signaling activity in a luminometer.

[2] = test system: constitutive active Wnt pathway (HCT116 TOPFlash); test: Cellular reporter assay, HCT116 Super TopFlash (constitutive active Wnt pathway); format: cell-based; conditions: Homo sapiens, HCT-116; HCT116 stably transfected with Super TopFlash vector; 36 hours incubation; luciferase expression
Procedure: In order to discover and characterize small molecules which inhibit the constitutive active colorectal cancer cell (CRC) Wnt pathway, a cellular reporter assay was employed. The corresponding assay cell was generated by transfection of the colorectal cancer cell line HCT116 (ATCC, #CCL-247) with the Super TopFlash vector (Morin, Science 275, 1997, 1787-1790; Molenaar et al., Cell 86 (3), 1996, 391-399). The HCT116 cell line is cultivated at 37° C. and 5% CO2 in DMEM/F-12 (Life Technologies, #11320-074), supplemented with 2 mM glutamine, 20 mM HEPES, 1.4 mM pyruvate, 0.15% Na-bicarbonate and 10% foetal bovine serum (GIBCO, #10270), this cancer cell line is pathophysiological relevant since it carries a deletion of position S45 in the β-catenin gene, leading to constitutive active Wnt signaling. Stable transfectants were generated by cotransfection with pcDNA3 and selection of stable transfected cells with 1 mg/ml G418.
as §1, §2

Structure (SMILES)	pIC50 [1]	pIC50 [2]
O=C(CN1CCOCC1)Nc1cc(C(=O)Nc2cnc(-c3ccccc3)cn2)ccc1OC1CC1 [Example 38, 4-(cyclopropyloxy)-3-[(morpholin-4-ylacetyl)amino]-N-(5-phenylpyrazin-2-yl)benzamide]	≤ 4.30	6.91
O=C(CN1C[C@@H]2C[C@H]1CO2)Nc1cc(C(=O)Nc2ccc(-c3ccccc3)nn2)ccc1OC(F)(F)F [Example 8, 3-{[(1S,4S)-2-oxa-5-azabicyclo[2.2.1]hept-5-ylacetyl]amino}-N-(6-phenylpyridazin-3-yl)-4-(trifluoromethoxy)benzamide]	≤ 4.30	6.90
CN1CCN(CC(=O)Nc2cc(C(=O)Nc3cnc(-c4ccccn4)cn3)ccc2OC(F)(F)F)CC1 [Example 40, 3-{[(4-methylpiperazin-1-yl)acetyl]amino}-N-[5-(pyridin-2-yl)pyrazin-2-yl]-4-(trifluoromethoxy)benzamide]	≤ 4.30	6.82
Nc1ccc(-c2ccc(NC(=O)c3ccc(OC(F)(F)F)c(NC(=O)CN4CCOCC4)c3)nn2)cn1 [Example 16, N-[6-(6-aminopyridin-3-yl)pyridazin-3-yl]-3-[(morpholin-4-ylacetyl)amino]-4-(trifluoromethoxy)benzamide]	≤ 4.30	7.36
CN1CCN(CC(=O)Nc2cc(C(=O)Nc3ccc(-c4cncnc4)nn3)ccc2OC(F)(F)F)CC1 [Example 2, 3-{[(4-methylpiperazin-1-yl)acetyl]amino}-N-[6-(pyrimidin-5-yl)pyridazin-3-yl]-4-(trifluoromethoxy)benzamide]	≤ 4.30	6.79
CN1CCN(CC(=O)Nc2cc(C(=O)Nc3cnc(-c4cccc(F)c4)cn3)ccc2OC(F)(F)F)CC1 [Example 59, N-[5-(3-fluorophenyl)pyrazin-2-yl]-3-{[(4-methylpiperazin-1-yl)acetyl]amino}-4-(trifluoromethoxy)benzamide]	≤ 4.30	5.52
Nc1ccc(-c2cnc(NC(=O)c3ccc(OC(F)(F)F)c(NC(=O)CN4CCOCC4)c3)cn2)cn1 [Example 46, N-[5-(6-aminopyridin-3-yl)pyrazin-2-yl]-3-[(morpholin-4-ylacetyl)amino]-4-(trifluoromethoxy)benzamide]	≤ 4.30	4.77
CN1CCN(CC(=O)Nc2cc(C(=O)Nc3cnc(-c4cnc(N)nc4)cn3)ccc2OC(F)(F)F)CC1 [Example 37, N-[5-(2-aminopyrimidin-5-yl)pyrazin-2-yl]-3-{[(4-methylpiperazin-1-yl)acetyl]amino}-4-(trifluoromethoxy)benzamide]	≤ 4.30	6.65
Cc1ccccc1-c1cnc(NC(=O)c2ccc(OC(F)(F)F)c(NC(=O)CN3CCOCC3)c2)cn1 [Example 39, N-[5-(2-methylphenyl)pyrazin-2-yl]-3-[(morpholin-4-ylacetyl)amino]-4-(trifluoromethoxy)benzamide]	4.60	6.65
CN1CCN(CC(=O)Nc2cc(C(=O)Nc3ncc(-c4ccccc4)cn3)ccc2OC(F)(F)F)CC1 [Example 19, 3-{[(4-methylpiperazin-1-yl)acetyl]amino}-N-(5-phenylpyrimidin-2-yl)-4-(trifluoromethoxy)benzamide]	≤ 4.30	6.49
O=C(CN1CCOCC1)Nc1cc(C(=O)Nc2cnc(-c3cccc(F)c3)cn2)ccc1OC(F)(F)F [Example 63, N-[5-(3-fluorophenyl)pyrazin-2-yl]-3-[(morpholin-4-ylacetyl)amino]-4-(trifluoromethoxy)benzamide]	≤ 4.30	4.80
O=C(CN1CCOCC1)Nc1cc(C(=O)Nc2ccc(-c3cncnc3)nn2)ccc1OC(F)(F)F [Example 15, 3-[(morpholin-4-ylacetyl)amino]-N-[6-(pyrimidin-5-yl)pyridazin-3-yl]-4-(trifluoromethoxy)benzamide]	≤ 4.30	6.20
O=C(CN1CCN(CC(F)F)CC1)Nc1cc(C(=O)Nc2ccc(-c3ccccc3)nn2)ccc1OC(F)(F)F [Example 5, 3-({[4-(2,2-difluoroethyl)piperazin-1-yl]acetyl}amino)-N-(6-phenylpyridazin-3-yl)-4-(trifluoromethoxy)benzamide]	≤ 4.30	6.69
CN1CCN(CC(=O)Nc2cc(C(=O)Nc3cnc(-c4cnccn4)cn3)ccc2OC(F)(F)F)CC1 [Example 54, N-(2,2′-bipyrazin-5-yl)-3-{[(4-methylpiperazin-1-yl)acetyl]amino}-4-(trifluoromethoxy)benzamide]	≤ 4.30	5.87
CN1CCN(CC(=O)Nc2cc(C(=O)Nc3ccc(-c4cccnc4)nn3)ccc2OC(F)(F)F)CC1 [Example 4, 3-{[(4-methylpiperazin-1-yl)acetyl]amino}-N-[6-(pyridin-3-yl)pyridazin-3-yl]-4-(trifluoromethoxy)benzamide]	≤ 4.30	7.76
CN1CCN(CC(=O)Nc2cc(C(=O)Nc3cnc(-c4ccncc4)cn3)ccc2OC(F)(F)F)CC1 [Example 28, 3-{[(4-methylpiperazin-1-yl)acetyl]amino}-N-[5-(pyridin-4-yl)pyrazin-2-yl]-4-(trifluoromethoxy)benzamide]	≤ 4.30	7.19
CN1CCN(CC(=O)Nc2cc(C(=O)Nc3cnc(-c4cncnc4)cn3)ccc2OC(F)(F)F)CC1 [Example 49]	≤ 4.30	6.59
CN1CCN(CC(=O)Nc2cc(C(=O)Nc3cnc(-c4cccc(Cl)c4)cn3)ccc2OC(F)(F)F)CC1 [Example 48, N-[5-(3-chlorophenyl)pyrazin-2-yl]-3-{[(4-methylpiperazin-1-yl)acetyl]amino}-4-(trifluoromethoxy)benzamide]	5.11	6.59
CN1CCN(CC(=O)Nc2cc(C(=O)Nc3cnc(-c4ccccc4Cl)cn3)ccc2OC(F)(F)F)CC1 [Example 44, N-[5-(2-chlorophenyl)pyrazin-2-yl]-3-{[(4-methylpiperazin-1-yl)acetyl]amino}-4-(trifluoromethoxy)benzamide]	≤ 4.30	4.77
CN1CCN(CC(=O)Nc2cc(C(=O)Nc3ccc(-c4ccccc4)nn3)ccc2OC(F)(F)F)CC1 [Example 9, 3-{[(4-methylpiperazin-1-yl)acetyl]amino}-N-(6-phenylpyridazin-3-yl)-4-(trifluoromethoxy)benzamide]	≤ 4.30	7.53
CN1CCN(CC(=O)Nc2cc(C(=O)Nc3cnc(-c4cccnc4F)cn3)ccc2OC(F)(F)F)CC1 [Example 36, N-[5-(2-fluoropyridin-3-yl)pyrazin-2-yl]-3-{[(4-methylpiperazin-1-yl)acetyl]amino}-4-(trifluoromethoxy)benzamide hydrochloride]	≤ 4.30	6.92
O=C(CN1CCOCC1)Nc1cc(C(=O)Nc2cnc(-c3ccncc3)cn2)ccc1OC(F)(F)F [Example 51, 3-[(morpholin-4-ylacetyl)amino]-N-[5-(pyridin-4-yl)pyrazin-2-yl]-4-(trifluoromethoxy)benzamide]	≤ 4.30	6.32
O=C(CN1CCOCC1)Nc1cc(C(=O)Nc2cnc(-c3ccccc3)cn2)ccc1OC(F)(F)F [Example 10, 3-[(morpholin-4-ylacetyl)amino]-N-(5-phenylpyrazin-2-yl)-4-(trifluoromethoxy)benzamide]	≤ 4.30	7.20
CN1CCN(CC(=O)Nc2cc(C(=O)Nc3ncc(-c4ccccc4)nn3)ccc2OC(F)(F)F)CC1 [Example 18, 3-{[(4-methylpiperazin-1-yl)acetyl]amino}-N-(6-phenyl-1,2,4-triazin-3-yl)-4-(trifluoromethoxy)benzamide]	4.70	7.80
O=C(CN1CCOCC1)Nc1cc(C(=O)Nc2ccc(-c3ccccc3)nn2)ccc1OC(F)(F)F [Example 7, 3-[(morpholin-4-ylacetyl)amino]-N-(6-phenylpyridazin-3-yl)-4-(trifluoromethoxy)benzamide]	≤ 4.30	7.70
